# Measured values from patent US7668586B2, “In vivo multiphoton diagnostic detection and imaging of a neurodegenerative disease” (Cornell Research Foundation, Inc., priority 2000, dated 2010).
# Tests used:
# pial arteriole = assay: Pial vessel reactivity, closed cranial window, vessel diameter measurement; settings: 14-month-old Tg+ (four out of five, outlier excluded); ACh 10 and 25 μM, SNP 0.5 μM superfused
# Description: Anesthesia was induced with 2.5% halothane and maintained in 1.0% halothane in 67% N2O and 33% O2. Mice were intubated transorally, placed in a stereotaxic frame and ventilated artificially (SAR-830/P, CWE, Ardmore, Pa.). End-tidal CO2 was continuously monitored by a microcapnometer (Columbus Instruments, Columbus, Ohio). The femoral artery and vein were cannulated with a polyethylene catheter (PE-10, Intramedic, Becton Dickinson) for continuous arterial blood pressure and heart rate monitoring and for drug infusion. Alpha-chloralose (80 mg/kg i.v.) was injected and halothane was withdrawn gradually for deepening of anesthesia. […] Arterial blood gas and pH were analyzed before drug superfusion. […]
# Pial vessels were visualized with a video microscope system comprised of an intravital microscope (Leitz, Germany), CCD video camera (model 1300, Cohu Inc, San Diego, U.S.A.), a camera controller (C2400, Hamamatsu Photonics, Hamamatsu, Japan), video monitor (Sony, Japan), and a video recorder (Panasonic, Japan). The images were continuously recorded on videotape. The diameter of a single pial arteriole (20-30 μm) was measured per experiment by a video width analyzer (C3161, Hamamatsu Photonics) and recorded using the MacLab data acquisition and analysis system. […]
# [1] = Fluorescent angiography after tail vein injection; settings: injected into tail vein, at least 20 minutes prior to imaging
# Protocol: The tail of the animal was warmed on a heating pad to dilate the blood vessels, and approximately 0.05 ml fluorescein (25 mg/ml) in sterile PBS was injected into a tail vein of the mouse at least 20 minutes prior to imaging.
# amyloid plaques = amyloid plaques (Homo sapiens, UniProt P05067); assay: In vivo multiphoton imaging of thioflavine S-positive amyloid; parameters: species or system Tg2576 mouse; settings: dilute solution applied to brain, 750 nm 2-photon excitation
# Sequence of amyloid plaques (P05067 672-711 limits assumed): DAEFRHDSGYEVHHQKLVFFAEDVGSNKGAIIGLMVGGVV
compound,measurement,setting,value
"CC(=O)OCC[N+](C)(C)C [ACh, Acetylcholine]",vessel dilation relative to control (non-transgenic) animals,pial arteriole,about 25%
O=C1OC2(c3ccc(O)cc3Oc3cc(O)ccc32)c2ccccc21 [fluorescein],crossing of the blood-brain barrier,[1],did not cross the blood-brain barrier
Thioflavine S,depth to the surface of the cortex at which plaques were visualized,amyloid plaques,up to 150 μm
